Results taken from US11566030B2, “Substituted 2,6-dihydropyrrolo[3,4-c]pyrazoles as pyruvate kinase activators” (priority 2021, dated 2023).
Read-outs that look alike come from different tables or passages of the source.

Molecular target: T1, Human pyruvate kinase R (PKR) (Homo sapiens, UniProt P30613)
T1 construct: Human pyruvate kinase R (PKR), residues 14-574; 6xHis-8xArg-SUMO (N, cleaved yes); host or cells: E. coli
Assay: Biochemical assay for activation of pyruvate kinase R (Kinase-Glo luminescence, ATP generation)
Details: for Emax: read-out: PKR % activation, maximal activation level achieved with each compound relative to the activation level achieved by AG-348 @ 10 μM
Description: Human pyruvate kinase R (PKR), residues 14-574, and human pyruvate kinase M2, residues 1-531, were cloned into expression plasmids and obtained from ATUM Bio (Newark, Calif.). Proteins were translated as fusions with 6×-His,8×-Arg, and SUMO at the N-terminus. A third construct of human PKR was truncated, residues 50-574, and similarly cloned for use in crystallography experiments. All proteins were cloned, expressed in E. coli, and purified using similar protocols. Cells were grown at 30° C. in Luria-Bertani broth supplemented with 0.4% glucose to OD600=0.8 and induced with 0.4 mM IPTG at 16° C. for 18 hours. Cells were harvested by centrifugation, resuspended in 50 mM potassium phosphate pH 8.0, 500 mM NaCl, 25 mM imidazole pH 8.0, and 3 mM β-mercaptoethanol. Cells were lysed using a LM20 microfluidizer from Microfluidics (Westwood, Mass.). The crude lysate was immediately supplemented with 0.2 mM phenylmethylsulfonyl fluoride (PMSF) and centrifuged at 20,000 g for 20 minutes. The soluble fraction was subsequently incubated with 2 mL Ni-NTA (GE Healthcare) per 1,000 ODs for 1 hour at 4° C. Following incubation with the Ni-NTA resin, lysate was removed by pelleting resin at 2,500 g for 3 minutes and washed 3 times with 9 bed volumes of 50 mM potassium phosphate pH 8.0, 500 mM NaCl, 25 mM imidazole, and 3 mM β-mercaptoethanol. Following the batch wash Ni-NTA resin was loaded onto a gravity column and His-tagged protein was eluted with 6 bed volumes of 10 mM Tris/HCl pH 8.0, 200 mM NaCl, 500 mM imidazole, and 3 mM β-mercaptoethanol. Eluted protein was dialyzed overnight against 10 mM Tris/HCl pH 8.0, 200 mM NaCl, and 1 mM DTT and the 6×-His-8×-Arg-SUMO-tag was cleaved using a 20:1 molar ratio of protein: 3C protease. The protein was purified by anion exchange chromatography on a HiTrapQ or MonoQ 10/100 GL column (GE Healthcare) via a linear NaCl gradient and twice by size exclusion chromatography using a Superdex S200 26/60 column (GE Healthcare) run in 10 mM Tris/HCl pH 8.0, 200 mM NaCl, 10 mM MgCl2, 1 mM DTT. Proteins were concentrated to −12 mg/mL for crystallization and flash frozen for storage.
Biochemical assay for Activation of Pyruvate Kinase R
Activation of pyruvate kinase R (PKR) and pyruvate kinase M2 (PKM2) were measured using a luminescence based measurement of ATP generation and the Kinase-Glo luminescent kinase reagent kit.

[1] = PKR AC50 (nM), 0.1 nM PKR, 0.3 mM ADP, 0.1 mM PEP, 1% DMSO

T1 sequence (P30613 14-574): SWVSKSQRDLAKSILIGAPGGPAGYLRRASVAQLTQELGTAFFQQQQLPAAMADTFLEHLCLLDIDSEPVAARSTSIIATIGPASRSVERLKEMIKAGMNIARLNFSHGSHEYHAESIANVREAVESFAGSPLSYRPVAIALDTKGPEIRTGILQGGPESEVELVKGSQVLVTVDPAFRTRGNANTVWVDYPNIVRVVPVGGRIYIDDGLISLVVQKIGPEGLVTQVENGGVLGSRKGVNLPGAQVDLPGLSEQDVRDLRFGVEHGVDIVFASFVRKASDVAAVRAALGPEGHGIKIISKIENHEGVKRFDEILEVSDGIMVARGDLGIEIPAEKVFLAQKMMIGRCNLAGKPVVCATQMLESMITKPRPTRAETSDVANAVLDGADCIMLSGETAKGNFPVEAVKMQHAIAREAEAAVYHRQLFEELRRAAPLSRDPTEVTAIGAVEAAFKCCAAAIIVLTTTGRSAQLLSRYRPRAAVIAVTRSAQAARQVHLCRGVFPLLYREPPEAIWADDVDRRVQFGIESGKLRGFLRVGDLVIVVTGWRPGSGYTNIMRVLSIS

Cc1c(S(=O)(=O)n2cc3c(n2)CN(C(=O)[C@H](CO)c2ccccc2F)C3)cnn1CC(F)F [Compound 14, (2S)-1-(2-{[1-(2,2-difluoroethyl)-5-methyl-1H-pyrazol-4-yl]sulfonyl}-2H,4H,5H,6H-pyrrolo[3,4-c]pyrazol-5-yl)-2-(2-fluorophenyl)-3-hydroxypropan-1-one]
AC50: 7.1 nM
Emax: 129%

Cc1nc(C)c(S(=O)(=O)n2cc3c(n2)CN(C(=O)[C@H](CO)c2ccccc2)C3)s1 [Compound 15, (2S)-1-{2-[(2,4-dimethyl-1,3-thiazol-5-yl)sulfonyl]-2H,4H,5H,6H-pyrrolo[3,4-c]pyrazol-5-yl}-3-hydroxy-2-phenylpropan-1-one]
AC50: 44 nM
Emax: 15%

Cc1noc(C)c1S(=O)(=O)n1cc2c(n1)CN(C(=O)[C@H](CO)c1ccccc1)C2 [Compound 16, (2S)-1-{2-[(3,5-dimethyl-1,2-oxazol-4-yl)sulfonyl]-2H,4H,5H,6H-pyrrolo[3,4-c]pyrazol-5-yl}-3-hydroxy-2-phenylpropan-1-one]
AC50 [1]: 1000 nM
Emax: 55%

O=C([C@H](CO)c1ccccc1)N1Cc2cn(S(=O)(=O)c3ccc(CCC(F)(F)F)s3)nc2C1 [Compound 17, (2S)-3-hydroxy-2-phenyl-1-(2-{[5-(3,3,3-trifluoropropyl)thiophen-2-yl]sulfonyl}-2H,4H,5H,6H-pyrrolo[3,4-c]pyrazol-5-yl)propan-1-one]
AC50 [1]: 53 nM
Emax: 23%

O=C([C@H](CO)c1ccccc1)N1Cc2cn(S(=O)(=O)c3ccc(-c4ccccc4)s3)nc2C1 [Compound 18, (2S)-3-hydroxy-2-phenyl-1-{2-[(5-phenylthiophen-2-yl)sulfonyl]-2H,4H,5H,6H-pyrrolo[3,4-c]pyrazol-5-yl}propan-1-one]
AC50 [1]: 72 nM
Emax: 70%

O=C([C@H](CO)c1ccccc1)N1Cc2cn(S(=O)(=O)c3ccc(Br)s3)nc2C1 [Compound 19, (2S)-1-{2-[(5-bromothiophen-2-yl)sulfonyl]-2H,4H,5H,6H-pyrrolo[3,4-c]pyrazol-5-yl}-3-hydroxy-2-phenylpropan-1-one]
AC50 [1]: 19 nM
Emax: 67%

Cc1nc(CCC(F)(F)F)sc1S(=O)(=O)n1cc2c(n1)CN(C(=O)[C@H](CO)c1ccccc1)C2 [Compound 20, (2S)-3-hydroxy-1-(2-{[4-methyl-2-(3,3,3-trifluoropropyl)-1,3-thiazol-5-yl]sulfonyl}-2H,4H,5H,6H-pyrrolo[3,4-c]pyrazol-5-yl)-2-phenylpropan-1-one]
AC50: 720 nM
Emax: 7%

CCc1ccc(S(=O)(=O)n2cc3c(n2)CN(C(=O)[C@H](CO)c2ccccc2)C3)s1 [Compound 21, (2S)-1-{2-[(5-ethylthiophen-2-yl)sulfonyl]-2H,4H,5H,6H-pyrrolo[3,4-c]pyrazol-5-yl}-3-hydroxy-2-phenylpropan-1-one]
AC50: 16 nM
Emax: 65%

Cc1nc(OCC(F)(F)F)sc1S(=O)(=O)n1cc2c(n1)CN(C(=O)[C@H](CO)c1ccccc1)C2 [Compound 22, (2S)-3-hydroxy-1-(2-{[4-methyl-2-(2,2,2-trifluoroethoxy)-1,3-thiazol-5-yl]sulfonyl}-2H,4H,5H,6H-pyrrolo[3,4-c]pyrazol-5-yl)-2-phenylpropan-1-one]
AC50 [1]: 1000 nM
Emax: 0%

COc1nc(C)c(S(=O)(=O)n2cc3c(n2)CN(C(=O)[C@H](CO)c2ccccc2F)C3)s1 [Compound 23, (2S)-2-(2-fluorophenyl)-3-hydroxy-1-{2-[(2-methoxy-4-methyl-1,3-thiazol-5-yl)sulfonyl]-2H,4H,5H,6H-pyrrolo[3,4-c]pyrazol-5-yl}propan-1-one]
AC50: 8.6 nM
Emax: 30%

O=C([C@H](CO)c1ccccc1)N1Cc2cn(S(=O)(=O)c3cn(CC(F)F)cn3)nc2C1 [Compound 24, (2S)-1-(2-{[1-(2,2-difluoroethyl)-1H-imidazol-4-yl]sulfonyl}-2H,4H,5H,6H-pyrrolo[3,4-c]pyrazol-5-yl)-3-hydroxy-2-phenylpropan-1-one]
AC50 [1]: 64 nM
Emax: 93%

O=C([C@@H](CO)c1ccccc1F)N1Cc2cn(S(=O)(=O)c3cnn(CC(F)(F)F)c3)nc2C1 [Compound 33, (2R)-2-(2-fluorophenyl)-3-hydroxy-1-[2-[1-(2,2,2-trifluoroethyl)pyrazol-4-ylsulfonyl]-4H,6H-pyrrolo[3,4-c]pyrazol-5-yl]propan-1-one]
AC50 [1]: 450 nM
Emax: 89%

O=C([C@@H](O)c1ccccc1)N1Cc2cn(S(=O)(=O)c3cnn(CC(F)F)c3)nc2C1 [Compound 34, (2S)-1-[2-[1-(2,2-difluoroethyl)pyrazol-4-ylsulfonyl]-4H,6H-pyrrolo[3,4-c]pyrazol-5-yl]-2-hydroxy-2-phenylethanone]
AC50: 930 nM
Emax: 102%

O=C([C@@H](CO)c1ccccc1F)N1Cc2cn(S(=O)(=O)c3cnn(CCF)c3)nc2C1 [Compound 35, (2R)-1-[2-[1-(2-fluoroethyl)pyrazol-4-ylsulfonyl]-4H,6H-pyrrolo[3,4c]pyrazol-5-yl]-2-(2-fluorophenyl)-3-hydroxypropan-1-one]
AC50 [1]: 130 nM
Emax: 125%

O=C([C@H](O)c1ccccc1F)N1Cc2cn(S(=O)(=O)c3cnn(CC(F)F)c3)nc2C1 [Compound 36, (2R)-1-[2-[1-(2,2-difluoroethyl)pyrazol-4-ylsulfonyl]-4H,6H-pyrrolo[3,4-c]pyrazol-5-yl]-2-(2-fluorophenyl)-2-hydroxyethanone]
AC50 [1]: 23 nM
Emax: 85%

O=C([C@@H](O)c1ccccc1F)N1Cc2cn(S(=O)(=O)c3cnn(CC(F)F)c3)nc2C1 [Compound 37, (2S)-1-[2-[1-(2,2-difluoroethyl)pyrazol-4-ylsulfonyl]-4H,6H-pyrrolo[3,4-c]pyrazol-5-yl]-2-(2-fluorophenyl)-2-hydroxyethanone]
AC50 [1]: 960 nM
Emax: 126%

COCCn1ccc(S(=O)(=O)n2cc3c(n2)CN(C(=O)[C@H](CO)c2ccccc2F)C3)n1 [Compound 44, (2S)-2-(2-fluorophenyl)-3-hydroxy-1-[2-[1-(2-methoxyethyl)pyrazol-3-ylsulfonyl]-4H,6H-pyrrolo[3,4-c]pyrazol-5-yl]propan-1-one]
AC50 [1]: 110 nM
Emax: 53%

COCCn1ccc(S(=O)(=O)n2cc3c(n2)CN(C(=O)[C@@H](CO)c2ccccc2F)C3)n1 [Compound 45, (2R)-2-(2-fluorophenyl)-3-hydroxy-1-[2-[1-(2-methoxyethyl)pyrazol-3-ylsulfonyl]-4H,6H-pyrrolo[3,4-c]pyrazol-5-yl]propan-1-one]
AC50 [1]: 1300 nM
Emax: 53%

O=C([C@@H](CO)c1ccccc1Cl)N1Cc2cn(S(=O)(=O)c3cnn(CC(F)F)c3)nc2C1 [Compound 46, (R)-2-(2-chlorophenyl)-1-(2-((1-(2,2-difluoroethyl)-1H-pyrazol-4-yl)sulfonyl)-2,6-dihydropyrrolo[3,4-c]pyrazol-5(4H)-yl)-3-hydroxypropan-1-one]
AC50: 150 nM
Emax: 191%

O=C([C@H](CO)c1ccccc1Cl)N1Cc2cn(S(=O)(=O)c3cnn(CC(F)(F)F)c3)nc2C1 [Compound 47, (2S)-2-(2-chlorophenyl)-3-hydroxy-1-[2-[1-(2,2,2-trifluoroethyl)pyrazol-4-ylsulfonyl]-4H,6H-pyrrolo[3,4-c]pyrazol-5-yl]propan-1-one]
AC50 [1]: 10 nM
Emax: 108%

O=C([C@@H](CO)c1ccccc1Cl)N1Cc2cn(S(=O)(=O)c3cnn(CC(F)(F)F)c3)nc2C1 [Compound 48, (2R)-2-(2-chlorophenyl)-3-hydroxy-1-[2-[1-(2,2,2-trifluoroethyl)pyrazol-4-ylsulfonyl]-4H,6H-pyrrolo[3,4-c]pyrazol-5-yl]propan-1-one]
AC50 [1]: 580 nM
Emax: 111%

C[C@@H](O)[C@@H](C(=O)N1Cc2cn(S(=O)(=O)c3cnn(CC(F)(F)F)c3)nc2C1)c1ccccc1 [Compound 49, (2S,3R)-3-hydroxy-2-phenyl-1-{2-[1-(2,2,2-trifluoroethyl)pyrazol-4-ylsulfonyl]-4H,6H-pyrrolo[3,4-c]pyrazol-5-yl}butan-1-one]
AC50 [1]: 71 nM
Emax: 113%

C[C@H](O)[C@@H](C(=O)N1Cc2cn(S(=O)(=O)c3cnn(CC(F)(F)F)c3)nc2C1)c1ccccc1 [Compound 50, (2S,3S)-3-hydroxy-2-phenyl-1-{2-[1-(2,2,2-trifluoroethyl)pyrazol-4-ylsulfonyl]-4H,6H-pyrrolo[3,4-c]pyrazol-5-yl}butan-1-one]
AC50 [1]: 82 nM
Emax: 89%
